Results: US20110021532A1, “NOVEL SUBSTITUTED HETEROAROMATIC COMPOUNDS AS INHIBITORS OF STEAROYL-COENZYME A DELTA-9 DESATURASE” (Merck Frosst Canada Ltd., priority 2008, published 2011)

molecular target: T1, human SCD1 (hSCD-1) (Homo sapiens, UniProt O00767); experiment: SCD enzyme activity assay, reconstituted human SCD1 (hSCD-1); assay type: biochemical; settings: human SCD1, conversion of [3H]-stearoyl-CoA
T1 construct: made in house; host or cells: baculovirus/Sf9
T1 sequence (O00767 1-359): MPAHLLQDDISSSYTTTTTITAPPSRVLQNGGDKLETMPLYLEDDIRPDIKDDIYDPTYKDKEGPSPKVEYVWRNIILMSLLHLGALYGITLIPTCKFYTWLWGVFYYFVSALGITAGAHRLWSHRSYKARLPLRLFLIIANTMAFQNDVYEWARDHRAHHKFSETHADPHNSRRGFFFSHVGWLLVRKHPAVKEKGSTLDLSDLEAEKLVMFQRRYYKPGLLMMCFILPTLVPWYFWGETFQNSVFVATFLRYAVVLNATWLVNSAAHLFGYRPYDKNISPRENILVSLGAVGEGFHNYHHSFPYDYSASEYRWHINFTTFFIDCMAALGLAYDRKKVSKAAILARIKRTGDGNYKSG
Protocol: The potency of compounds of formula I against the stearoyl-CoA desaturase was determined by measuring the conversion of radiolabeled stearoyl-CoA to oleoyl-CoA using rat liver microsome or human SCD1 (hSCD-1) following previously published procedures with some modifications (Joshi, et al., J. Lipid Res., 18: 32-36 (1977); Talmo, et al., Anal. Biochem, 29: 300-304 (1969)). Liver microsome was prepared from male Wistar or Sprague Dawley rats on a high carbohydrate diet for 3 days (LabDiet #5803, Purina). The livers were homogenized (1:10 w/v) in a buffer containing 250 mM sucrose, 1 mM EDTA, 5 mM DTT and 50 mM Tris-HCl (pH 7.5). After a 100,000×g centrifugation for 60 min, the liver microsome pellet was suspended in a buffer containing 100 mM sodium phosphate, 20% glycerol, 2 mM DTT, and stored at −78° C. Human SCD1 desaturase system was reconstituted using human SCD1 from a baculovirus/Sf9 expression system, cytochrome B5 and cytochrome B5 reductase. Typically, test compound in 2 μL DMSO was incubated for 15 min at room temperature with 180 μL of the SCD enzyme in a buffer containing 100 mM Tris-HCl (pH 7.5), ATP (5 mM), Coenzyme-A (0.1 mM), Triton X-100 (0.5 mM) and NADH (2 mM). The reaction was initiated by the addition of 20 μL of [^3H]-stearoyl-CoA (final concentration=2 μM, radioactivity concentration=1 μCi/mL). After 10 min, the reaction mixture (80 μL) was mixed with a calcium chloride/charcoal aqueous suspension (100 μL charcoal (10% w/v) plus 25 μL CaCl2 (2N). After centrifugation to precipitate the radioactive fatty acid species, tritiated water released from 9,10-[^3H]-stearoyl-CoA by the SCD enzyme was quantified on a scintillation counter.

| Compound | IC50 |
| --- | --- |
| CS(=O)(=O)c1ccc2[nH]c(-c3ccc(-c4cccs4)cc3)nc2c1 | 231 nM |
| CS(=O)(=O)c1ccn2cc(-c3ccc(-c4cccc(Cl)c4)cc3)nc2c1 | 13 nM |
| CS(=O)(=O)c1ccc2nc(-c3ccc(-c4cccc(F)c4)cc3)[nH]c2c1 | 26 nM |

Now from value to compound:

| IC50 | Compound |
| --- | --- |
| 27 nM | CS(=O)(=O)c1ccc2nc(-c3ccc(-c4ccccc4F)nc3)[nH]c2c1 |
| 113 nM | CS(=O)(=O)c1cnc2[nH]c(-c3ccc(-c4ccccc4F)cc3)nc2c1 |
